From paper PMC4177392, “Modulation of Cytochrome P450 Metabolism and Transport across Intestinal Epithelial Barrier by Ginger Biophenolics” (PLoS ONE, 2014)
In brackets after ≈: the same amount, converted by molar mass.

What was measured:
[1] = molecular target: T1, CYP2A6 (Homo sapiens, UniProt P11509); experiment: CYP2A6 inhibition in human liver microsomes (substrate coumarin); assay type: in vitro ADME
T1 sequence (P11509 1-494): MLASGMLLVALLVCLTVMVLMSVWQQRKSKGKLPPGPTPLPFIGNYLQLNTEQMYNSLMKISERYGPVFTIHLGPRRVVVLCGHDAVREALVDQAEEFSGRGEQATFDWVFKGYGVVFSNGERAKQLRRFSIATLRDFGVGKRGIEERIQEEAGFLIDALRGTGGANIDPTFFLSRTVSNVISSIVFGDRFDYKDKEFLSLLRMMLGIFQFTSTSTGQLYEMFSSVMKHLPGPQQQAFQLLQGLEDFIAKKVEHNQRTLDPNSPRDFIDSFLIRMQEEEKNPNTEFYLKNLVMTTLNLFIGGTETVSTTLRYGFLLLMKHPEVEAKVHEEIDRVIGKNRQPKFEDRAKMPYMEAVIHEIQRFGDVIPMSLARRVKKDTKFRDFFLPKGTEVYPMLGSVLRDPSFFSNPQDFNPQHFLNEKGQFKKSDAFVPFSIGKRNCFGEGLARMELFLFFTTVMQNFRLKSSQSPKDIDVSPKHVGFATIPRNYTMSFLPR
Experimental: The highest concentration of GE used in the assay was 500 µg/mL equivalent. Stock solution for each CYP specific probe substrate was prepared in such a way that the final concentration is below the reported Km value.
A microsome-buffer-substrate mixture (MBS mix) was prepared for each isozyme by pre-mixing appropriate volumes of sodium phosphate buffer (pH 7.4, 50 mM), microsomes and substrate (Table S2 in File S1). 179 µL of MBS mix was transferred to 96-well reaction plate to which 1 µL of inhibitor stock solution was added to achieve the final target inhibitor concentration. The reaction plate was pre-incubated for 10 min at 37°C followed by reaction initiation by addition of 20 µL of 10 mM NADPH solution. The reaction plate was then incubated at 37°C for a predetermined time period following which it was quenched with 200 µL ACN for all CYPs and 200 µL 1% formic acid in water∶ACN (70∶30) for CYP1A2. In all cases, the final incubations after addition of substrate and inhibitor contained 0.1% DMSO (v/v), and the total organic solvent (DMSO and ACN) content was less than or equal to 1% (v/v). […] The incubations were performed in singlet for individual gingerols and in duplicate for GE along with respective positive controls.

[2] = molecular target: CYP2E1 (Homo sapiens, UniProt P05181); experiment: CYP2E1 inhibition in human liver microsomes (substrate chlorzoxazone); conditions: human liver microsomes, substrate chlorzoxazone, positive control
Experimental: Stock solution for each CYP specific probe substrate was prepared in such a way that the final concentration is below the reported Km value.
A microsome-buffer-substrate mixture (MBS mix) was prepared for each isozyme by pre-mixing appropriate volumes of sodium phosphate buffer (pH 7.4, 50 mM), microsomes and substrate (Table S2 in File S1). 179 µL of MBS mix was transferred to 96-well reaction plate to which 1 µL of inhibitor stock solution was added to achieve the final target inhibitor concentration. The reaction plate was pre-incubated for 10 min at 37°C followed by reaction initiation by addition of 20 µL of 10 mM NADPH solution. The reaction plate was then incubated at 37°C for a predetermined time period following which it was quenched with 200 µL ACN for all CYPs and 200 µL 1% formic acid in water∶ACN (70∶30) for CYP1A2. In all cases, the final incubations after addition of substrate and inhibitor contained 0.1% DMSO (v/v), and the total organic solvent (DMSO and ACN) content was less than or equal to 1% (v/v). The details of final substrate concentration, incubation time, microsomal protein concentration in the reaction mixtures and the metabolites monitored for each isozyme tested are presented in Table S3 in File S1.
All samples were processed using protein precipitation method and analyzed by employing positive (for all CYPs) and negative (for CYP2A6, 2C19 and 2E1) ionization mode in liquid chromatography tandem mass spectrometry (API4000, Applied Biosystems, USA). The peak area ratio of analyte to IS was used for calculations. An isocratic method comprising 5 mM ammonium formate and ACN (40∶60) with 0.05% formic acid was used for elution. For CYP2C19, a mobile phase consisting of 5 mM ammonium formate and ACN (30∶70) was used. The analytes and internal standards were retained on BDS Hypersil Phenyl (150×4.6 mm, 5 µ, Thermo, USA) column. A flow rate of 0.5 mL/min (CYP1A2), 0.6 mL/min (CYP2C19, CYP2E1), 0.7 mL/min (CYP2C9), 0.8 mL/min (CYP2A6, CYP3A), 1.0 mL/min (CYP2B6, CYP2C8, CYP2D6) was maintained using Shimadzu Prominence solvent delivery system (LC-20AD). The mobile phase was degassed using degasser (DGU-20A3), samples were loaded into autosampler (SIL-HTc) and the column temperature was maintained at 40°C by column oven (CTO-20A). Injection volumes for the samples were as follows: 5 µL (CYP1A2, CYP2D6, and CYP3A), 10 µL (CYP2B6, CYP2C8, and CYP2E1) and 20 µL (CYP2A6, CYP2C9, and CYP2C19). Data was collected and processed using Sciex Analyst 1.4.2. All the structures of inhibitors, substrates, metabolites and internal standards for each CYP enzyme are represented in Table S6 in File S1.
The IC50 value was estimated from the percentage reduction in CYP activity at eleven inhibitor concentrations with respect to control.
The data was analysed using 4PL (parameter logistic model), 3PLFB (bottom fixed), 3PLFT (top fixed), 2PL (top and bottom fixed), and the relative IC50 was with lowest standard error was further manipulation. Absolute IC50 was calculated from this relative IC50 by using the equation below: [drawing 3]

CYP2E1, sequence (P05181 whole entry): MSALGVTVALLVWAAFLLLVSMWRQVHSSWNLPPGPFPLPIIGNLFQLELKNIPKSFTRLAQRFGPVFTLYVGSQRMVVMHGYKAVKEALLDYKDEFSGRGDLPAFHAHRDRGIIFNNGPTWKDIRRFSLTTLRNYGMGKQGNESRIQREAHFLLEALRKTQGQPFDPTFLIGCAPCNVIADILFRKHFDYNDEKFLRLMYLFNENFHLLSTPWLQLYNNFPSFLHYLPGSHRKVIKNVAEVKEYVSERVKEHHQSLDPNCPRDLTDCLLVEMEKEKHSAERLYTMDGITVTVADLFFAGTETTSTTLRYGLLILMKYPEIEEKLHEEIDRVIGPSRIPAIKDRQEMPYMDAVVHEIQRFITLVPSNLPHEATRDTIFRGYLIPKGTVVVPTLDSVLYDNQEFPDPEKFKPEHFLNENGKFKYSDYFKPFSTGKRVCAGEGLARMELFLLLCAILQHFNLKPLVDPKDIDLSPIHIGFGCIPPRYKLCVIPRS

With N[C@@H]1C[C@H]1c1ccccc1 (racemic) [Tranylcypromine, reference compound] the “IC50 CYP2A6” value ([1]; human liver microsomes, substrate coumarin, positive control) was 0.0084 µg/mL (≈ 0.0631 µM), the “CYP2A6 inhibition, fold more effective than the test compounds” value ([1]; positive control vs test compounds) was about 4000 fold and the “IC50 CYP2E1” value [2] was 0.5793 µg/mL (≈ 4.35 µM). For the same compound, the “IC50 CYP2E1” value ([2]; listed as tranylcypromine) was 0.579 µg/mL (≈ 4.35 µM).
